Laboratory results published in publication PMC8371461 (Frontiers in Pharmacology, 2021).

Assays:
MEK5 = target: T1, MEK5 (Homo sapiens, UniProt Q13163); experiment: kinome scan; type: binding; details: 10 µM
T1 construct: purchased DiscoverX (KINOMEscan)

IGF1R = target: T2, IGF1R (Homo sapiens, UniProt P08069); experiment: kinome scan; type: binding; details: 10 µM
T2 construct: purchased DiscoverX (KINOMEscan)

[1] = system: Rat pregnane X receptor (rPXR) signaling pathway; design: method as in CHEMBL2114797; details: reported activity, data mining; ref CHEMBL2114797; cited from earlier work
Cruzain = system: Cruzain; design: method as in CHEMBL1613769; details: reported activity, data mining; ref CHEMBL1613769; cited from earlier work
FER = target: T3, FER (Homo sapiens, UniProt P16591); experiment: kinome scan; type: binding; details: 10 µM
T3 construct: purchased DiscoverX (KINOMEscan)

ACVR2B = target: T4, ACVR2B (Homo sapiens, UniProt Q13705); experiment: kinome scan; type: binding; details: 10 µM
T4 construct: purchased DiscoverX (KINOMEscan)

TRKC = target: T5, TRKC (Homo sapiens, UniProt Q16288); experiment: kinome scan; type: binding; details: 10 µM
T5 construct: purchased DiscoverX (KINOMEscan)
T5 sequence (Q16288 32-839): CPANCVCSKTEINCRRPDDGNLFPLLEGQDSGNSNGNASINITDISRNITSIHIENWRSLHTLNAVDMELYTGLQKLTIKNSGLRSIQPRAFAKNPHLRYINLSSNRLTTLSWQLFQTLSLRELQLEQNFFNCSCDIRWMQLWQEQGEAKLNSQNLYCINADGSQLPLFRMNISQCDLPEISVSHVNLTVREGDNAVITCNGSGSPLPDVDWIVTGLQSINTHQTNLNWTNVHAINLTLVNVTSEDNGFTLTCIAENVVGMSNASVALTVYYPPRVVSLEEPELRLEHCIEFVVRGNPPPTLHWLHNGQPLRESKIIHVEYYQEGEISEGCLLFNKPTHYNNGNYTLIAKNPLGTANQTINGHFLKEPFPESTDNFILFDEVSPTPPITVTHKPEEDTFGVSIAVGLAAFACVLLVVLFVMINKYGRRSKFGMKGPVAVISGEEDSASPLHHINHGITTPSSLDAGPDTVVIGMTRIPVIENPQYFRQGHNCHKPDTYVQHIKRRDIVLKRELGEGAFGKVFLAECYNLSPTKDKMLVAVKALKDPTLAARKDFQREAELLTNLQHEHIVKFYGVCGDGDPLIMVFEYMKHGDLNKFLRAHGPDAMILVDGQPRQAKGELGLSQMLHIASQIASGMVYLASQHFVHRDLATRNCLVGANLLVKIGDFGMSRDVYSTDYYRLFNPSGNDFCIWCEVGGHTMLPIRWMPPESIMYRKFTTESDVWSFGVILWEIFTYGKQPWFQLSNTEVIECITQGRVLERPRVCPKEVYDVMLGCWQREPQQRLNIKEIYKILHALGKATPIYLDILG

LRRK2 = target: T6, LRRK2 (Homo sapiens, UniProt Q5S007); experiment: kinome scan; type: binding; details: 10 µM
T6 construct: purchased DiscoverX (KINOMEscan)

ERK3 = target: T7, ERK3 (Homo sapiens, UniProt Q16659); experiment: kinome scan; type: binding; details: 10 µM
T7 construct: purchased DiscoverX (KINOMEscan)

MYO3B = target: T8, MYO3B (Homo sapiens, UniProt Q8WXR4); experiment: kinome scan; type: binding; details: 10 µM
T8 construct: purchased DiscoverX (KINOMEscan)

[2] = system: Hemoglobin beta chain splicing at IVS2 705 locus; design: method as in CHEMBL1614204; details: reported activity, data mining; ref CHEMBL1614204; cited from earlier work
KIT(D816V) = target: T9, KIT(D816V) (Homo sapiens, UniProt P10721, D816V); experiment: kinome scan; type: binding; details: 10 µM
T9 construct: purchased DiscoverX (KINOMEscan)

PKN2 = target: T10, PKN2 (Homo sapiens, UniProt Q16513); experiment: kinome scan; type: binding; details: 10 µM
T10 construct: purchased DiscoverX (KINOMEscan)

[3] = target: T11, JAK1(JH2domain-pseudokinase) (Homo sapiens, UniProt P23458); experiment: kinome scan; type: binding; details: 10 µM
T11 construct: JAK1(JH2domain-pseudokinase); purchased DiscoverX (KINOMEscan)

EPHB3 = target: T12, EPHB3 (Homo sapiens, UniProt P54753); experiment: kinome scan; type: binding; details: 10 µM
T12 construct: purchased DiscoverX (KINOMEscan)

EGFR = target: T13, EGFR (Homo sapiens, UniProt P00533); experiment: kinome scan; type: binding; details: 10 µM
T13 construct: purchased DiscoverX (KINOMEscan)
T13 sequence (P00533 25-1210): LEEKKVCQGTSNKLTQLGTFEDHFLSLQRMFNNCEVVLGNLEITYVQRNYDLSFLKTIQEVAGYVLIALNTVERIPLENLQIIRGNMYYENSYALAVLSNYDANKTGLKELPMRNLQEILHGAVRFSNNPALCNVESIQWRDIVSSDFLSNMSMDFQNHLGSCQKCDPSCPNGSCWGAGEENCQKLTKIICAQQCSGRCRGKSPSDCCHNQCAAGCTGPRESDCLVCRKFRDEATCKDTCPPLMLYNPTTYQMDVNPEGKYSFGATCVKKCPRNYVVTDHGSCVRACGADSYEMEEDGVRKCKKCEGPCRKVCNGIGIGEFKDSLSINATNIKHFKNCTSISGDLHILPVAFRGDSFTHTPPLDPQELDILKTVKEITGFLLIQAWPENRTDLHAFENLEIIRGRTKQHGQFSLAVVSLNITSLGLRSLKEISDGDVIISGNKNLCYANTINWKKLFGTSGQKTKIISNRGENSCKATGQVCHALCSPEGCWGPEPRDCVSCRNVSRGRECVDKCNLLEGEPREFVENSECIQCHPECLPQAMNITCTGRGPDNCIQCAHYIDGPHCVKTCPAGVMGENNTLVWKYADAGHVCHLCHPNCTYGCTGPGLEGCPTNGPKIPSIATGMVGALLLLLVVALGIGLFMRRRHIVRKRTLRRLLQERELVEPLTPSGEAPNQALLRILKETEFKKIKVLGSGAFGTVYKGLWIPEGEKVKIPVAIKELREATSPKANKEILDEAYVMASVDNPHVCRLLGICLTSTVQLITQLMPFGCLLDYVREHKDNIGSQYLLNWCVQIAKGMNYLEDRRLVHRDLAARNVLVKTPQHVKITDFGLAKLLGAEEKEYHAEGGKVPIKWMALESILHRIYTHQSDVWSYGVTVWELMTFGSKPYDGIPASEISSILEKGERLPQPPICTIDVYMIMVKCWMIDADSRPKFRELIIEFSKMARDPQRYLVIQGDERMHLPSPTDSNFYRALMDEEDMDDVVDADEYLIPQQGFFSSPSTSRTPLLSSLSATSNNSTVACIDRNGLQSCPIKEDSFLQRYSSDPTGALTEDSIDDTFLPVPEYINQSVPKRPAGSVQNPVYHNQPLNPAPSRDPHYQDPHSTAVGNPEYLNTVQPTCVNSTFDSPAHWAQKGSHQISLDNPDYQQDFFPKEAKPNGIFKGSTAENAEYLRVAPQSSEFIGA

DDR1 = target: T14, DDR1 (Homo sapiens, UniProt Q08345); experiment: kinome scan; type: binding; details: 10 µM
T14 construct: purchased DiscoverX (KINOMEscan)

CSNK1G3 = target: T15, CSNK1G3 (Homo sapiens, UniProt Q9Y6M4); experiment: kinome scan; type: binding
T15 construct: purchased DiscoverX (KINOMEscan)
T15 sequence (Q9Y6M4 whole entry): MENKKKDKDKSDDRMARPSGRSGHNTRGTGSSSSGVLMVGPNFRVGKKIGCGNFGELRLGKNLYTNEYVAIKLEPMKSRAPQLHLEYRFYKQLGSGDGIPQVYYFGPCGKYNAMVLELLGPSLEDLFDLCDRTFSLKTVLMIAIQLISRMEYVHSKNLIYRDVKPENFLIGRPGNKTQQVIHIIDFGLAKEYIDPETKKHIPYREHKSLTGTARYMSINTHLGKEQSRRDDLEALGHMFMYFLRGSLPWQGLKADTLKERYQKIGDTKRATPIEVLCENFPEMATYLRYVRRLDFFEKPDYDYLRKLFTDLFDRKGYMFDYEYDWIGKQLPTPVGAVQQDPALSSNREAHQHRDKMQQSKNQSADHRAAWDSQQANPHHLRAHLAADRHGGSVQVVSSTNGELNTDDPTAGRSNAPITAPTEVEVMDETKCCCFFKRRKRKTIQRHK

CDK3 = target: T16, CDK3 (Homo sapiens, UniProt Q00526); experiment: kinome scan; type: binding; details: 10 µM
T16 construct: purchased DiscoverX (KINOMEscan)

[4] = target: T17, ABL1(F317I)-nonphosphorylated (Homo sapiens, UniProt P00519, F317I); experiment: kinome scan; type: binding; details: 10 µM
T17 construct: purchased DiscoverX (KINOMEscan)

MET(Y1235D) = target: T18, MET(Y1235D) (Homo sapiens, UniProt P08581, Y1235D); experiment: kinome scan; type: binding; details: 10 µM
T18 construct: purchased DiscoverX (KINOMEscan)

MAPKAPK5 = target: T19, MAPKAPK5 (Homo sapiens, UniProt Q8IW41); experiment: kinome scan; type: binding; details: 10 µM
T19 construct: purchased DiscoverX (KINOMEscan)

EPHA2 = target: T20, EPHA2 (Homo sapiens, UniProt P29317); experiment: kinome scan; type: binding; details: 10 µM
T20 construct: purchased DiscoverX (KINOMEscan)
T20 sequence (P29317 24-976): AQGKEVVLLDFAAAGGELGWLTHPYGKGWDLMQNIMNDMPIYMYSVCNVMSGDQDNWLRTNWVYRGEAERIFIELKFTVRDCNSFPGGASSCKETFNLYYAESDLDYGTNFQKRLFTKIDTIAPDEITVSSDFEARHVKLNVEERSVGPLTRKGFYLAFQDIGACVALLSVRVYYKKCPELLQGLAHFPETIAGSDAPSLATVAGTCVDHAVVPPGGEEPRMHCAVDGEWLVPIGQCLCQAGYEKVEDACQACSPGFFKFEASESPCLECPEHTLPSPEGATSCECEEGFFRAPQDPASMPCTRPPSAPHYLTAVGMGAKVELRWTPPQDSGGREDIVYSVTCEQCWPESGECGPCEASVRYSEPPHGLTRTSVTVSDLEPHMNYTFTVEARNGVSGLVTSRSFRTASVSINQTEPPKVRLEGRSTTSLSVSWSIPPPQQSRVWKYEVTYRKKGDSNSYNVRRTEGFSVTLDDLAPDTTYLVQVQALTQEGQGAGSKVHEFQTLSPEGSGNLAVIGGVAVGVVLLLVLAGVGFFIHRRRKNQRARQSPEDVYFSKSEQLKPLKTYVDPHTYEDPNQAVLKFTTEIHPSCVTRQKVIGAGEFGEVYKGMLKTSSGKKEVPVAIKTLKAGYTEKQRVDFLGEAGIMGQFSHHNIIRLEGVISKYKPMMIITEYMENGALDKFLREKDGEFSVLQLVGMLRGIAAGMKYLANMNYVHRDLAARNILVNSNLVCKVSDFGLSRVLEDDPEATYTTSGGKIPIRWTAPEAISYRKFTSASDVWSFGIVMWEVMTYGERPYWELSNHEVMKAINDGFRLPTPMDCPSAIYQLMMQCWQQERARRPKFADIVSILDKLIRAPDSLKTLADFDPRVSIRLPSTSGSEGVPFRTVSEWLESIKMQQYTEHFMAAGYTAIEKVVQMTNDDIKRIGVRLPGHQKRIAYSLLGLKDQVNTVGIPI

PAK3 = target: T21, PAK3 (Homo sapiens, UniProt O75914); experiment: kinome scan; type: binding; details: 10 µM
T21 construct: purchased DiscoverX (KINOMEscan)

TNK2 = target: T22, TNK2 (Homo sapiens, UniProt Q07912); experiment: kinome scan; type: binding; details: 10 µM
T22 construct: purchased DiscoverX (KINOMEscan)
T22 sequence (Q07912 whole entry): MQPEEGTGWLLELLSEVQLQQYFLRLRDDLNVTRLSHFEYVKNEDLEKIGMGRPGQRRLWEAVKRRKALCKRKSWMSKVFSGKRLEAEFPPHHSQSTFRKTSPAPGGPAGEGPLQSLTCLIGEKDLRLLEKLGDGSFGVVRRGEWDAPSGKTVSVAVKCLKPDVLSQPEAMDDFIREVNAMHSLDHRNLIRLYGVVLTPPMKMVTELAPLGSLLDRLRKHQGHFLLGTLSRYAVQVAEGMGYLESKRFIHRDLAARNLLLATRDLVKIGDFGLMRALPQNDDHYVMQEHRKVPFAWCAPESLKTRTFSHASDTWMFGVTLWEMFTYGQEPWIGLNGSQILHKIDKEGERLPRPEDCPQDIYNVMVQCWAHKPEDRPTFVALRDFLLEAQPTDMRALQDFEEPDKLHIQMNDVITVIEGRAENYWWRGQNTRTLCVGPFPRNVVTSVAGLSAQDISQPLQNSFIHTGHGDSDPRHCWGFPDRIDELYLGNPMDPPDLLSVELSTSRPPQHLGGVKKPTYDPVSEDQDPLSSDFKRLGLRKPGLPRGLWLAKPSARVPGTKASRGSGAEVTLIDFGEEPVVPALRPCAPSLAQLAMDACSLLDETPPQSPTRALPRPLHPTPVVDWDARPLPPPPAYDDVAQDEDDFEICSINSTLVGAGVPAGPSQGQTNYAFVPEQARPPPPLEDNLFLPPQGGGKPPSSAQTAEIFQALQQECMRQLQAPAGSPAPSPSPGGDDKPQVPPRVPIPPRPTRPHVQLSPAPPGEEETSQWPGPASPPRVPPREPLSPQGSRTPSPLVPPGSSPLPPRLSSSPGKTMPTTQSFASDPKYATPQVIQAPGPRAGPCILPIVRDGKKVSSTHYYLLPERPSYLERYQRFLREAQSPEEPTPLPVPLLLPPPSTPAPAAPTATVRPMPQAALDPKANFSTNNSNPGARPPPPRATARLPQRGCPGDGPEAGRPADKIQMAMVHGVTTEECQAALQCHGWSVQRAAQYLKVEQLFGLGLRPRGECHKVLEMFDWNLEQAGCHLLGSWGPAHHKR

BTK = target: T23, BTK (Homo sapiens, UniProt Q06187); experiment: kinome scan; type: binding; details: 10 µM
T23 construct: purchased DiscoverX (KINOMEscan)

PRKCH = target: T24, PRKCH (Homo sapiens, UniProt P24723); experiment: kinome scan; type: binding; details: 10 µM
T24 construct: purchased DiscoverX (KINOMEscan)

MET = target: T25, MET (Homo sapiens, UniProt P08581); experiment: kinome scan; type: binding; details: 10 µM
T25 construct: purchased DiscoverX (KINOMEscan)

NEK3 = target: T26, NEK3 (Homo sapiens, UniProt P51956); experiment: kinome scan; type: binding; details: 10 µM
T26 construct: purchased DiscoverX (KINOMEscan)

NEK9 = target: T27, NEK9 (Homo sapiens, UniProt Q8TD19); experiment: kinome scan; type: binding; details: 10 µM
T27 construct: purchased DiscoverX (KINOMEscan)

DAPK2 = target: T28, DAPK2 (Homo sapiens, UniProt Q9UIK4); experiment: kinome scan; type: binding; details: 10 µM
T28 construct: purchased DiscoverX (KINOMEscan)

ERK8 = target: T29, ERK8 (Homo sapiens, UniProt Q8TD08); experiment: kinome scan; type: binding; details: 10 µM
T29 construct: purchased DiscoverX (KINOMEscan)

SNARK = target: T30, SNARK (Homo sapiens, UniProt Q9H093); experiment: kinome scan; type: binding; details: 10 µM
T30 construct: purchased DiscoverX (KINOMEscan)

SRC = target: T31, SRC (Homo sapiens, UniProt P12931); experiment: kinome scan; type: binding; details: 10 µM
T31 construct: purchased DiscoverX (KINOMEscan)

[5] = target: T32, TYK2(JH1domain-catalytic) (Homo sapiens, UniProt P29597); experiment: kinome scan; type: binding; details: 10 µM
T32 construct: TYK2(JH1domain-catalytic); purchased DiscoverX (KINOMEscan)

MYO3A = target: T33, MYO3A (Homo sapiens, UniProt Q8NEV4); experiment: kinome scan; type: binding; details: 10 µM
T33 construct: purchased DiscoverX (KINOMEscan)

PIK3CA(C420R) = target: T34, PIK3CA(C420R) (Homo sapiens, UniProt P42336, C420R); experiment: kinome scan; type: binding; details: 10 µM
T34 construct: purchased DiscoverX (KINOMEscan)

T1 sequence (Q13163 whole entry): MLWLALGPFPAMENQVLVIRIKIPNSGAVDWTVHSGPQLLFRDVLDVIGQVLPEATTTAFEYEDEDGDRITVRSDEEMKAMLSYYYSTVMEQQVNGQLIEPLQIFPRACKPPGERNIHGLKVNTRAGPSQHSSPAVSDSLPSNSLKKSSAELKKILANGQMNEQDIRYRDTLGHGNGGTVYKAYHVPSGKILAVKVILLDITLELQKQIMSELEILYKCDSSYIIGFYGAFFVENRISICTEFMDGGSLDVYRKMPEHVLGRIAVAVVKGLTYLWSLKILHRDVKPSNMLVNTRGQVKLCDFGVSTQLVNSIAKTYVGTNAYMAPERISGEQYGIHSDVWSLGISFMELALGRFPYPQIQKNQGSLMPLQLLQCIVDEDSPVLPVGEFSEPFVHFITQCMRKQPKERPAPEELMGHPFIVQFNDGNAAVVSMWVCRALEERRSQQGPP

SMILES: Nc1ccc(N=Nc2ccccc2)c(N)n1 [phenazopyridine, 2,6-diamino-3-(phenylazo)pyridine]
- kinase inhibition (MEK5): 90
- kinase inhibition (IGF1R): 100
- Concentration [1]: 7 µM
- Concentration (Cruzain): 20 µM
- kinase inhibition (FER): 100
- kinase inhibition (ACVR2B): 84
- kinase inhibition (TRKC): 90
- kinase inhibition (LRRK2): 100
- kinase inhibition (ERK3): 95
- kinase inhibition (MYO3B): 95
- Concentration [2]: 20 µM
- kinase inhibition (KIT(D816V)): 100
- kinase inhibition (PKN2): 100
- kinase inhibition [3]: 32
- kinase inhibition (EPHB3): 85
- remaining binding (% of control) (EGFR): 93
- kinase inhibition (DDR1): 96
- kinase inhibition (CSNK1G3; CSNK1G3, 10 µM): 100
- remaining binding at 10 µM (CSNK1G3; Casein kinase 1 isoform γ 3 (CK1), read-out: Kinome scan (% of control at 10 µM)): 44%
- kinase inhibition (CDK3): 100
- kinase inhibition [4]: 96
- kinase inhibition (MET(Y1235D)): 100
- kinase inhibition (MAPKAPK5): 100
- kinase inhibition (EPHA2): 95
- kinase inhibition (PAK3): 99
- kinase inhibition (TNK2): 100
- kinase inhibition (BTK): 100
- kinase inhibition (PRKCH): 78
- kinase inhibition (MET): 100
- kinase inhibition (NEK3): 100
- kinase inhibition (NEK9): 100
- kinase inhibition (DAPK2): 100
- kinase inhibition (ERK8): 100
- kinase inhibition (SNARK): 87
- kinase inhibition (SRC): 100
- remaining binding (% of control) [5]: 100
- kinase inhibition (MYO3A): 100
- kinase inhibition (PIK3CA(C420R)): 100
